Laboratory results published in patent publication US7166725B2, “Benzo[d]isoxazol-3-ol DAAO inhibitors” (Sepracor Inc., priority 2003, dated 2007).

Assays:
Purified pig DAAO = Purified pig DAAO (Sus scrofa, UniProt P00371); assay: In vitro measurements of DAAO activity (Amplex Red H2O2 fluorescence; alternative phenylglycine absorbance assay); type: biochemical; details: read-out: Inhibition of DAAO, IC50
Description: Purified pig DAAO, added to a buffered mixture of 50 mM D-Serine produces H202 in stoichiometric amounts for each D-Serine molecule oxidized. H202 production can be monitored with a commercially available dye Amplex Red, which in the presence of H202, is converted to the fluorescent product resorufin. For each described inhibitor, the fluorescence was also measured during additions of 80 μM H202 in the absence of DAAO, to control for artifactual inhibition of the dye conversion, and to quantify the amount of H202 produced. In an alternative assay of DAAO activity, the purified pig DAAO is added to buffered mixture of 1 mM phenylglycine in the presence of compounds. The activity of DAAO is monitored spectrophotometrically by its enzymatic conversion of phenylglycine to benzoylformic acid with optical absorption at 252 nm.
Inhibitors of DAAO's enzymatic cycle were serially diluted to reduce the level of inhibition. The parameters of a non-linear equation were adjusted to fit the resulting series of inhibition levels to extrapolate the concentration of compound where 50% inhibition is achieved (IC50). These numbers are averaged for the number (n) of independent measurements (on separate days) of the inhibition.

[1] = molecular target: T1, D-Serine's binding site on the NMDA receptor (Rattus norvegicus, UniProt P35439); assay: NMDA receptor affinity, [3H]MDL105,519 radioligand binding, rat cerebral cortex membranes; details: tested at 100 μM, read-out: inhibition of specific [3H]MDL105,519 binding
T1 construct: membranes prepared from rat cerebral cortex; from tissue; host or cells: rat cerebral cortex membranes
Description: To measure the affinity of the compounds reported herein for D-Serine's binding site on the NMDA receptor (also known as the “Glycine site” or the “strychnine-insensitive glycine site”), a radioligand-binding assay was performed with membranes prepared from rat cerebral cortex. The radioactive ligand was [3H]MDL105,519. The amount of radioactivity displaced by the compounds was assessed by scintillation counting. Non-specific binding is accounted for in the presence of 1 mM Glycine. Affinities are calculated from the values of % inhibition of specific [3H]MDL105,519 binding by the test compounds.

[2] = Rat brain uptake, left carotid artery perfusion; type: in vivo; details: 30 seconds perfusion in phosphate buffered saline pH 7.4; N of 4 rats
Excerpt: Experiments that evaluate the rat brain penetration of test compounds use a perfusion system where the left carotid artery is cannulated and the branch arteries are tied off. The test compound plus internal controls are perfused for 30 seconds into the left hemisphere in phosphate buffered saline at pH 7.4. The internal controls are atenolol (with low brain uptake) and antipyrine (with high brain uptake). After a 30 second washout with perfusate, the brain is removed surgically. The left hemisphere is homogenized; test compounds (plus internal controls) are extracted from brain homogenate, and analyzed using LC/MS/MS to determine the concentration of test compound and internal controls in the brain.

Purified pig DAAO, sequence (P00371 whole entry): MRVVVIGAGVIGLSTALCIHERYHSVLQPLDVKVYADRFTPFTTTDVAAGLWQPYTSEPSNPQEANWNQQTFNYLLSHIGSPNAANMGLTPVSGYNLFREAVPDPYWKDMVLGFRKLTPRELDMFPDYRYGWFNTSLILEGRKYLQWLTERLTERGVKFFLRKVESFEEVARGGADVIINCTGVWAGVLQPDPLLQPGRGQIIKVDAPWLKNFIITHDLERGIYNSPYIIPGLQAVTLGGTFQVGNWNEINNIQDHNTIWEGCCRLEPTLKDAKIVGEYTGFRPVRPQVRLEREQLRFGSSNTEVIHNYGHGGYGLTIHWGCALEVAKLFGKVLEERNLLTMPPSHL

Row | IC50 (Purified pig DAAO) [µM] | SMILES | further results
1 | > 100 | Oc1cccc2onc(O)c12 | 
2 | < 1 | Oc1noc2cc(F)ccc12 | 
3 | < 10 | Oc1ccc2c(O)noc2c1 | 
4 | > 100 | Oc1noc2c(Cl)cccc12 | 
5 | < 100 | Oc1noc2c(O)cccc12 | 
6 | < 10 | COc1ccc2onc(O)c2c1 | 
7 | < 1 | Oc1noc2cc(Br)ccc12 | 
8 | < 100 | COc1cccc2c(O)noc12 | 
9 | < 100 | N#Cc1ccc2onc(O)c2c1 | 
10 | > 100 | O=C(Nc1ccc2c(O)noc2c1)OCc1ccccc1 | 
11 | > 100 | O=C(Nc1ccc2onc(O)c2c1)OCc1ccccc1 | 
12 | < 1 | Cc1ccc2c(O)noc2c1 [drawing 22] | 

Second part, the molecule before the results:

Row | SMILES | IC50 (Purified pig DAAO) [µM] | further results
13 | Oc1noc2cccc(F)c12 | < 10 | 
14 | COc1cccc2onc(O)c12 | < 100 | 
15 | Oc1noc2cc(Br)c(Br)cc12 | < 0.1 | 
16 | Oc1noc2cc(Cl)c(Cl)cc12 | < 0.1 | 
17 | Oc1noc2cc(Cl)c(Br)cc12 | < 0.1 | 
18 | Cc1cc2onc(O)c2cc1Br | < 0.1 | 
19 | COc1ccc2c(O)noc2c1 | < 10 | 
20 | Oc1noc2c(F)cccc12 | < 100 | 
21 | Oc1noc2cc(Br)c(Cl)cc12 | < 0.1 | 
22 | Cc1cc2onc(O)c2cc1Cl | < 0.1 | 
23 | Oc1noc2ccc(Cl)cc12 | < 1 | 
24 | Oc1ccc2onc(O)c2c1 | > 100 | 
25 | Cc1cc2onc(O)c2cc1I | < 0.1 | 
26 | Oc1noc2ccc(I)cc12 | < 10 | 
27 | Cc1ccc2onc(O)c2c1 | < 10 | 
28 | Oc1noc2ccc(CCc3ccccc3)cc12 | < 100 | 
29 | Oc1noc2ccc(OCc3ccccc3)cc12 | < 10 | 
30 | Oc1noc2ccc(Br)cc12 | < 1 | 
31 | Oc1noc2ccc(F)cc12 | < 1 | 
32 | Oc1noc2ccccc12 | < 1 | 
33 | Cc1cccc2c(O)noc12 | > 100 | 
34 | Oc1noc2cc(OCc3ccccc3)ccc12 | > 100 | 
35 | O=C(O)c1cc2ccccc2[nH]1 [INDOLE-2-CARBOXYLIC ACID, reference compound] | < 10 | inhibition at 100 µM [1]: 77%
36 | O=C(O)c1ccc[nH]1 [PYRROLE-2-CARBOXYLIC ACID, reference compound] | < 10 | 
37 | Oc1noc2cc(Cl)ccc12 [drawing 38] | < 0.1 | 
38 | Oc1noc2cc(Cl)ccc12 [drawing 47] |  | inhibition at 100 µM [1]: < 10%
39 | Cc1ccc2c(O)noc2c1 [drawing 48] |  | Rat Brain Uptake Rate [2]: 199 pmol/g brain/sec
40 | Oc1noc2cc(Cl)ccc12 [drawing 49] |  | Rat Brain Uptake Rate [2]: 162 pmol/g brain/sec
